Measured values reported in ChEMBL document CHEMBL1201862, “PubChem BioAssay data set” (2004).
Activity calls are given as the source filed them.

Legend:
[1] = test system: Vero; assay: cells; format: functional, cell-based; conditions: Chlorocebus sabaeus
[2] = biological target: T1, Protein skinhead-1 (Caenorhabditis elegans, UniProt P34707); format: functional
T1 sequence (P34707 whole entry): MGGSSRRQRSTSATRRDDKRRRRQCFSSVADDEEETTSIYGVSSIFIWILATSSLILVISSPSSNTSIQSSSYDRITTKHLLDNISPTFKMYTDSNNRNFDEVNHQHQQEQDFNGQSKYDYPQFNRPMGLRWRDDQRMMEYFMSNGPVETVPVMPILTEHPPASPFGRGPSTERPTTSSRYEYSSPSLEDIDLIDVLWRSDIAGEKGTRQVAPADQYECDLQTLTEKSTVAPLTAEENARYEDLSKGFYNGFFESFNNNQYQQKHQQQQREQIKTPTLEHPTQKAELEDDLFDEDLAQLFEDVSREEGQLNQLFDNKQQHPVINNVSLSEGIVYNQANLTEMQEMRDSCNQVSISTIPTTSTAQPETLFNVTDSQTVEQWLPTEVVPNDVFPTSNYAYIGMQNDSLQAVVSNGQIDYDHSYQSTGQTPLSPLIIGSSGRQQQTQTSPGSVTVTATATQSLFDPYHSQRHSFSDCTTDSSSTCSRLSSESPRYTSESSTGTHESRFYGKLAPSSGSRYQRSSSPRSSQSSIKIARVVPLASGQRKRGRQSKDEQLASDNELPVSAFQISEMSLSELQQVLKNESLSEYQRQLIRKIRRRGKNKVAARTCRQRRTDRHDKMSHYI

[3] = biological target: Protein Wnt-3a (Mus musculus, UniProt P27467); assay: Wnt3a-driven reporter signaling inhibition, dose response, selectivity assay for Gli-SUFU antagonist project, Wnt-LIGHT cells, luminescence (AID 651570); format: functional; conditions: read-out: IC50_Mean;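 also: Wnt-LIGHT reporter cells stimulated with conditioned medium from Wnt3a-producing cells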
Chain of Protein Wnt-3a (P27467 whole entry): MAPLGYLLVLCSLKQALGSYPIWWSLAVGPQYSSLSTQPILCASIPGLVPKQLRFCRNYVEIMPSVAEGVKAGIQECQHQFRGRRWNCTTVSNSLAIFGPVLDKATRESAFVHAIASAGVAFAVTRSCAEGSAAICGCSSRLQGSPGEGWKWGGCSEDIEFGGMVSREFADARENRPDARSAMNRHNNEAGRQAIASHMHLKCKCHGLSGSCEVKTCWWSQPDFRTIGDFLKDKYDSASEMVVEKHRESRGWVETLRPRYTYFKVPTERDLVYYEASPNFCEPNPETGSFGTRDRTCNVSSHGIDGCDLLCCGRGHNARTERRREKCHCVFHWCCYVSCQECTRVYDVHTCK

[4] = NIH-3T3 fibroblast cytotoxicity, dose response, cytotoxicity control, cell-based, fluorescence, Alamar Blue, secondary assay (AID 2327); format: functional;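 also: NIH-3T3 mouse fibroblasts cultured with fluconazole at 8 µg/mL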
[5] = C. albicans growth with fluconazole, confirmation, fluorescence, retest (AID 2467); format: functional, cell-based
[6] = cells; format: functional
[7] = biological target: T2, High affinity choline transporter 1 (Homo sapiens, UniProt Q9GZV3); assay: CHT inhibitors, dose response, cell-based, 5-point CRC, membrane potential dye (AID 504840); format: functional
T2 sequence (Q9GZV3 whole entry): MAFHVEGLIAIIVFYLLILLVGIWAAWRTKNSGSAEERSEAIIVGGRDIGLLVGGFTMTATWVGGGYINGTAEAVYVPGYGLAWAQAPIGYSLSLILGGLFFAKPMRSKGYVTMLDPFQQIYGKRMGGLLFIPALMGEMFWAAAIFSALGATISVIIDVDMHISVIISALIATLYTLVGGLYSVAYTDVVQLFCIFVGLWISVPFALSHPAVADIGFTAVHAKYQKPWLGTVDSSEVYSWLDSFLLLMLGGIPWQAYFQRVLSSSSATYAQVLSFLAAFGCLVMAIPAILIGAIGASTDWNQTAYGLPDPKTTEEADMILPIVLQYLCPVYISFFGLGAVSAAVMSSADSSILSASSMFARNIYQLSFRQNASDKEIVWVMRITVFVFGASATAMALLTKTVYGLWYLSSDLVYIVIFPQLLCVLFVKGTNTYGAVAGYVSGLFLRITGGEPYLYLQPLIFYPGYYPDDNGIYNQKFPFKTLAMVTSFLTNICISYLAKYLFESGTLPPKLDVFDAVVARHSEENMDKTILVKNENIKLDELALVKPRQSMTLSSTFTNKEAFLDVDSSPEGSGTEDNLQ

[8] = Fluorescence-based cell-based high throughput dose response assay for inhibitors of the interaction of nucleotide-binding oligomerization domain containing 2 (NOD2) and the receptor-interacting serine-threonine kinase 2 (RIPK2).; format: functional; conditions: Homo sapiens
[9] = test system: HEK293; assay: inhibitors of LMP1-driven NF-kB reporter, dose response, cell-based, HEK293, luciferase, cherry-pick (AID 588343); format: functional; conditions: Homo sapiens
[10] = test system: Vero; assay: cells; format: functional; conditions: Chlorocebus sabaeus
[11] = test system: INS1; assay: beta cell apoptosis inhibitors, cytokine rescue, dose response, luminescence, retest (AID 449756); format: functional, cell-based; conditions: Rattus norvegicus;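 also: cell death triggered by IL-1 beta plus TNF-alpha plus IFN-gamma mixture; protective hits raise ATP signal compared with cytokine alone wells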
[12] = Shn3 3'UTR reporter inhibitors, dose response, cell-based, Clone20 osteoblasts, firefly luciferase, cherry-picked (AID 624132); format: functional;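 also: firefly luciferase luminescence from reporter carrying the Shn3 3'UTR in osteoblasts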
[13] = HepG2 cell cytotoxicity, dose response, cytotoxicity control for Shn3 inhibitor project, CellTiter-Glo, cherry-picked (AID 624134); format: functional, cell-based
[14] = control 3'UTR Renilla luciferase suppression, dose response, counter-screen for Shn3 inhibitor project, cell-based, Clone20-Shn3RL, cherry-picked (AID 624133); format: functional
[15] = HEp-2 cell cytotoxicity, dose response, cytotoxicity control for RSV inhibitor project, HTS (AID 2410); format: functional; conditions: human respiratory syncytial virus
[16] = cells
[17] = biological target: SWI/SNF-related matrix-associated actin-dependent regulator of chromatin subfamily A member 2 (Homo sapiens, UniProt P51531); assay: Luminescence-based cell-based high throughput dose response assay to identify activators of the function of SWI/SNF related, matrix associated, actin dependent regulator of chromatin, subfamily a, member 2 (SMARCA2, BRM).; format: functional
Chain of SWI/SNF-related matrix-associated actin-dependent regulator of chromatin subfamily A member 2 (P51531 whole entry): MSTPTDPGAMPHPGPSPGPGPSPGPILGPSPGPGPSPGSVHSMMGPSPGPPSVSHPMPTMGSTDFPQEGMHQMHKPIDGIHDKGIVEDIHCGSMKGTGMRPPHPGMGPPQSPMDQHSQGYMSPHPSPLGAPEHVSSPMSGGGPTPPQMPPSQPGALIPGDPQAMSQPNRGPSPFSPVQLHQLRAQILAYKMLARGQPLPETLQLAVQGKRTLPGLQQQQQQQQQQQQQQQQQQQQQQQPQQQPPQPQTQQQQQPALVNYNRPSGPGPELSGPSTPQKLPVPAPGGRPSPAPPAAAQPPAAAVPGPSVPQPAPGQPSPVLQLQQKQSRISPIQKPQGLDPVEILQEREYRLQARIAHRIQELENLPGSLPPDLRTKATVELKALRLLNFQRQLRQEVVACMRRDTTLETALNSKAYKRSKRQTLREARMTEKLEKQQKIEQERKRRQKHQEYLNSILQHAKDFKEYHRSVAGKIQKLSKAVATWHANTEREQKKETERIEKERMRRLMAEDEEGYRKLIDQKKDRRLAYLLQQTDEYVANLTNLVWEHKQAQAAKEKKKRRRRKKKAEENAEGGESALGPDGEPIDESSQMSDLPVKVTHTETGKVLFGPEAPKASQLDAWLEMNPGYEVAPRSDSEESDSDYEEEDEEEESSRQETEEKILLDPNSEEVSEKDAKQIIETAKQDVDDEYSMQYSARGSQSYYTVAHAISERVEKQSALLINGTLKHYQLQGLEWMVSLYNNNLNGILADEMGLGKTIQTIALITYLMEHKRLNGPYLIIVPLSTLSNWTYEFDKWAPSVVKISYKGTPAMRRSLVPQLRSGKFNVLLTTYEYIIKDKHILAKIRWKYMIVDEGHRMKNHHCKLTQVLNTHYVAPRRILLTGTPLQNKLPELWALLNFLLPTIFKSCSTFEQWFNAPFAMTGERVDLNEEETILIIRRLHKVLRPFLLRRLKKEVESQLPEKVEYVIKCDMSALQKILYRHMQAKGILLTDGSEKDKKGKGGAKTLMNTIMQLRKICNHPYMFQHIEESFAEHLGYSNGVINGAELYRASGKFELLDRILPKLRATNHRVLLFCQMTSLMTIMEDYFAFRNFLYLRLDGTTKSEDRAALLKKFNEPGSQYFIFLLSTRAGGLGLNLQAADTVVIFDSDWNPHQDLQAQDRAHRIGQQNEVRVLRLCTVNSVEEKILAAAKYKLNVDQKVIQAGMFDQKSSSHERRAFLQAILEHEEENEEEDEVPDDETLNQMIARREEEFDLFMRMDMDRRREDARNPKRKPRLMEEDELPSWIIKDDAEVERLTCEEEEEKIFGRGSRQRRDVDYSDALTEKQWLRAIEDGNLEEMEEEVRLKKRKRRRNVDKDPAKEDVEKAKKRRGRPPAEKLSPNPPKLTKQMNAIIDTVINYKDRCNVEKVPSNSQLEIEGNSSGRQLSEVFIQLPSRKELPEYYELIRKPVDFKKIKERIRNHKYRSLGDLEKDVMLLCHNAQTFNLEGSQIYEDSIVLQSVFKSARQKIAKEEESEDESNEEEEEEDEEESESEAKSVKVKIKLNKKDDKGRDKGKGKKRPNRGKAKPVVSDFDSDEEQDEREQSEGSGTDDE

[18] = Counterscreen for activators of the function of SWI/SNF related, matrix associated, actin dependent regulator of chromatin, subfamily a, member 2 (SMARCA2, BRM): Luminescence-based cell-based high throughput dose response assay to identify non-selective compounds using the VP16 reporter assay.; format: functional
[19] = biological target: Neurotensin receptor type 1 (Homo sapiens, UniProt P30989); format: functional;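 also: Image-based confirmatory dose-response assay measuring agonist activity at NTR1; NTR1-expressing U2OS osteosarcoma cells imaged for beta-arrestin GFP spot formation; agonist potency where compounds increase beta-arrestin recruitment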
Chain of Neurotensin receptor type 1 (P30989 whole entry): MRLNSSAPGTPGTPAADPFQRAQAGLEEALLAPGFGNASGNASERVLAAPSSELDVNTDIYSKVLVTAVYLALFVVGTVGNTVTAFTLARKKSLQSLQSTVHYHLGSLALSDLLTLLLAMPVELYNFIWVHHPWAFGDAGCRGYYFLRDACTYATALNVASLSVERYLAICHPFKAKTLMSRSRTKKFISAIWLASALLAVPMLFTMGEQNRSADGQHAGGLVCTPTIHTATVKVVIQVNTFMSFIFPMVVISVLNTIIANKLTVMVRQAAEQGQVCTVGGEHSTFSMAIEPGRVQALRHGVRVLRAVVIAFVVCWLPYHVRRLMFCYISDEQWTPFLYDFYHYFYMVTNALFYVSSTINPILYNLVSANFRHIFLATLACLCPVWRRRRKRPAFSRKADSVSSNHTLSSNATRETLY

[20] = biological target: Heat shock protein HSP 90-alpha (Homo sapiens, UniProt P07900); format: functional, organism-based
[21] = biological target: T3, Low molecular weight phosphotyrosine protein phosphatase (Homo sapiens, UniProt P24666); format: functional; conditions: read-out: IC50_Mean
T3 sequence (P24666 whole entry): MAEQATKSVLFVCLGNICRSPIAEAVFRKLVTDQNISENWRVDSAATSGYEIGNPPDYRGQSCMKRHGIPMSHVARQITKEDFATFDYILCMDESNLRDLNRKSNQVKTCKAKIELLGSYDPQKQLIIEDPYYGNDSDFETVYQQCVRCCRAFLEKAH

[22] = biological target: T3, Low molecular weight phosphotyrosine protein phosphatase; format: functional; conditions: read-out: IC50_Mean; remark: listed apart in the source
[23] = Luminescence Cell-Based Dose Confirmation HTS to Identify Activators of 5'UTR Stem-Loop Driven Alpha-Synuclein mRNA Translation in H4 Neuroglioblastoma Cells. [Related pubchem assays: 1829 (Project Summary), 1814 (Primary HTS)]; format: functional
[24] = Luminescence Cell-Based Dose Response HTS to Identify Activators of Luciferase Translation or Activity in H4 […] Cells. [Related pubchem assays: 1829 (Project Summary), 1814 (Primary HTS)]; format: functional
[25] = test system: BJ; assay: cytotoxicity toward BJ-TERT fibroblasts, dose response, cell-based, RAS-independent, luminescence (AID 1933); format: functional; conditions: Homo sapiens
[26] = cells; format: functional, cell-based
[27] = test system: H4; assay: Luminescence Cell-Based Dose Response HTS to Identify Activators of 5'UTR Stem-Loop Driven Prion Protein mRNA Translation in H4 Neuroglioblastoma Cells. [Related pubchem assays: 1829 (Project Summary), 1814 (Primary HTS)]; format: functional; conditions: Homo sapiens
[28] = test system: BJ; assay: cells; format: functional, cell-based; conditions: Homo sapiens
[29] = cells; format: functional, cell-based; remark: listed apart in the source
[30] = test system: BJ; assay: cytotoxicity toward BJ-TERT-LT-ST fibroblasts, dose response, cell-based, RAS-independent, luminescence (AID 1935); format: functional; conditions: Homo sapiens;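 also: BJ fibroblasts immortalized with TERT plus LT and ST oncogenes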
[31] = cytotoxicity toward DRD oncogenic fibroblasts, dose response, cell-based, non-viral oncogenic, luminescence (AID 1934); format: functional; conditions: Homo sapiens
[32] = biological target: T4, Microphthalmia-associated transcription factor (Homo sapiens, UniProt O75030); assay: TRPM1 promoter luciferase signal decrease, dose response, MITF inhibitor project, cell-based, SK-MEL-5, cherry-picked, set 3 (AID 493073); format: functional
T4 sequence (O75030 whole entry): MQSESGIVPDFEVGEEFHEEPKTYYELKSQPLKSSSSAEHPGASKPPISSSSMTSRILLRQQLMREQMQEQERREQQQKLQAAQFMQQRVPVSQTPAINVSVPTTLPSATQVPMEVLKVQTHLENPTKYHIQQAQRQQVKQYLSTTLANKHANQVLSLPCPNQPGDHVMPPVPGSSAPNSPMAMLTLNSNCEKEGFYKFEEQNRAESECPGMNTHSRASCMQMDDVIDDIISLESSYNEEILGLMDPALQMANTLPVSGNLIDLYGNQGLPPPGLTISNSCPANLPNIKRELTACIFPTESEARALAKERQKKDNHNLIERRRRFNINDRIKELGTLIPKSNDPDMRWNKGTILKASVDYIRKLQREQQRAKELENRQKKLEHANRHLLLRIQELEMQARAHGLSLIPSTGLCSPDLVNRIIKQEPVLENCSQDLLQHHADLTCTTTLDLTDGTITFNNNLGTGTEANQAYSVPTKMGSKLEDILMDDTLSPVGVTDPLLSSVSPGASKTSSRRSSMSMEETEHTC

[33] = HeLa cell cytotoxicity, dose response, cytotoxicity control for MgcRacGAP inhibitor project (AID 624300); format: functional
[34] = biological target: T5, Rac GTPase-activating protein 1 (Homo sapiens, UniProt Q9H0H5); assay: MgcRacGAP GTPase-activating activity inhibitors, confirmation, biochemical, ADP Hunter fluorescence, primary and confirmatory (AID 624330); format: functional
T5 sequence (Q9H0H5 whole entry): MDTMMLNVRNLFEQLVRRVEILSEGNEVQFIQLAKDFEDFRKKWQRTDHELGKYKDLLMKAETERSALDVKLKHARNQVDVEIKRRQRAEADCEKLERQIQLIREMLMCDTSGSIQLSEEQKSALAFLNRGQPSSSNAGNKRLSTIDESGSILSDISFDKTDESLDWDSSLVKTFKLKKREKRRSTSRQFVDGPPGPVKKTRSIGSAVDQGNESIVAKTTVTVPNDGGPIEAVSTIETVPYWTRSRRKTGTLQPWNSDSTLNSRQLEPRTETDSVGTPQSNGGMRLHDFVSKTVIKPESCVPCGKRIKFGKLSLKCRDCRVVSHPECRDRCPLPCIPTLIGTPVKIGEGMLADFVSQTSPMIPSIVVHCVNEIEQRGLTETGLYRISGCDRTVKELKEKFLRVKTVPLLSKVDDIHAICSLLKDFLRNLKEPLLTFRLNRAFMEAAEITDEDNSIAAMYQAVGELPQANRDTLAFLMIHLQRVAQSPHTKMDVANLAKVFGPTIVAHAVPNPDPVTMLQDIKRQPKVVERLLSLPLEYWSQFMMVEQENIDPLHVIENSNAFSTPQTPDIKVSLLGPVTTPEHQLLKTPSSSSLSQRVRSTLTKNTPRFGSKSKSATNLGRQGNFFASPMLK

O=C(CCCN1C(=O)/C(=C\c2ccco2)SC1=S)Nc1ccc2ccccc2c1
IC50 [1]: 8.01 µM (active)

CN1/C(=C\C(=O)COC(=O)CNC(=O)c2ccc3ccccc3c2)C(C)(C)c2ccccc21
IC50 [2]: > 100 µM (inactive)
IC50 [3]: 50 µM (inactive)

O=[N+]([O-])c1ccc(Nc2ccccc2)c2nonc12
EC50 [4]: > 150 µM (inconclusive)
EC50 [5]: < 0.03 µM (active)
IC50 [6]: 7.68 µM (active)
IC50 [7]: 11.8 µM (active)
IC50 [2]: 41.5 µM (active)

O=C(NCCN1C(=O)S/C(=C\c2ccc(Cl)c([N+](=O)[O-])c2)C1=O)C1=COCCO1
IC50 [8]: 1.62 µM (active)

CC1CC(C)C(=O)C(C(CC2CC(=O)NC(=O)C2)OC(=O)CC(=O)c2ccccc2)C1 (stereo not given)
AC50 [9]: 42.3 µM (active)
IC50 [1]: > 25 µM (active)
CC50 [10]: 9.24 µM (active)

COc1ccc(NS(=O)(=O)c2ccc(N3CCCCC3)c(N)c2)cc1
AC50 [11]: 3.22 µM (active)
AC50 [12]: 0.824 µM (active)
AC50 [13]: 4.01 µM (active)
AC50 [14]: 1.51 µM (active)
IC50 [3]: 0.102 µM (active)

CC1Sc2n(c3ccccc3[n+]2C)N=C1c1ccccc1 (stereo not given)
IC50 [3]: 3.6 µM (active)

Cc1cccc(C(=O)Nc2ccccc2SCC2CSc3nc4ccccc4c(=O)n32)c1 (stereo not given)
CC50 [15]: 43 µM (active)
IC50 [1]: > 25 µM (active)
IC50 [16]: 19.9 µM (active)

O=C(CNCc1c(F)cccc1F)N1CCC2(CC1)OCCO2
EC50 [17]: > 91.3 µM (inactive)
EC50 [18]: > 91.3 µM (inactive)

COc1ccccc1/C=C/C(=O)OCC(=O)Nc1ccc(Cl)cn1
EC50 [17]: > 91.1 µM (inactive)
EC50 [18]: > 91.1 µM (inactive)

COc1ccc(C(C[N+](=O)[O-])n2nc(C)cc2C)cc1 (stereo not given)
EC50 [19]: 10.1 µM (active)
AC50 [20]: 1.94 µM (active)
IC50 [8]: 1.63 µM (active)

Cc1ccc(NC(=O)NCc2ccc3[nH]c(C)cc3c2)cc1
IC50 [1]: > 25 µM (active)

Cc1c(-c2ccccc2)c(-c2ccc(OCCN(C)C)cc2)n2ccccc12
IC50 [21]: 31.3 µM (inactive)
IC50 [22]: 4.82 µM (active)

O=C(NNC(=S)Nc1ccc(Cl)cc1)c1ccccc1OC(F)F
IC50 [7]: 13.8 µM (active)

COc1cc(/C=C/C(=O)c2ccc3c(c2)OCCO3)cc(Br)c1OCC(=O)N(C)C
EC50 [23]: 5.83 µM (active)
EC50 [24]: 14.4 µM (active)
EC50 [25]: 4.75 µM (active)
EC50 [26]: > 350 µM (not active)
EC50 [27]: > 120 µM (not active)
EC50 [28]: 3.4 µM (inconclusive)
EC50 [29]: > 350 µM (not active)
EC50 [30]: 5.55 µM (inconclusive)
EC50 [31]: 5.43 µM (inconclusive)
AC50 [32]: 6.17 µM (active)
AC50 [12]: 2.63 µM (active)
AC50 [13]: 14.2 µM (active)
AC50 [14]: 8.52 µM (active)

CNc1nc(NC)c2c[nH]nc2n1
IC50 [21]: 33 µM (inactive)
IC50 [22]: 9.16 µM (active)

Cc1ccc(C(=O)C[n+]2cc(Br)cc(Br)c2)cc1
IC50 [7]: 11.4 µM (active)

Cc1cc(C)c(OCCCCNCc2ccccc2)c(Cl)c1
CC50 [33]: 69.7 µM (active)
IC50 [34]: 91.9 µM (active)
